{"source": "BigSolDB 2.1"}
{"smiles": "CCCN(CCC)S(=O)(=O)c1ccc(C(=O)O)cc1", "values": [{"measurement": "solubility (mole fraction)", "setting": "in MTBE, 283.15 K", "value": 0.00461}, {"measurement": "solubility (mole fraction)", "setting": "in MTBE, 288.15 K", "value": 0.00531}, {"measurement": "solubility (mole fraction)", "setting": "in MTBE, 293.15 K", "value": 0.00665}, {"measurement": "solubility (mole fraction)", "setting": "in MTBE, 298.15 K", "value": 0.00801}, {"measurement": "solubility (mole fraction)", "setting": "in MTBE, 303.15 K", "value": 0.00953}, {"measurement": "solubility (mole fraction)", "setting": "in MTBE, 308.15 K", "value": 0.0111}, {"measurement": "solubility (mole fraction)", "setting": "in MTBE, 313.15 K", "value": 0.0129}, {"measurement": "solubility (mole fraction)", "setting": "in MTBE, 318.15 K", "value": 0.0156}, {"measurement": "solubility (mole fraction)", "setting": "in MTBE, 323.15 K", "value": 0.0185}, {"measurement": "solubility (mole fraction)", "setting": "in acetone, 283.15 K", "value": 0.013}, {"measurement": "solubility (mole fraction)", "setting": "in acetone, 288.15 K", "value": 0.0148}, {"measurement": "solubility (mole fraction)", "setting": "in acetone, 293.15 K", "value": 0.0176}, {"measurement": "solubility (mole fraction)", "setting": "in acetone, 298.15 K", "value": 0.0201}, {"measurement": "solubility (mole fraction)", "setting": "in acetone, 303.15 K", "value": 0.0234}, {"measurement": "solubility (mole fraction)", "setting": "in acetone, 308.15 K", "value": 0.0268}, {"measurement": "solubility (mole fraction)", "setting": "in acetone, 313.15 K", "value": 0.0312}, {"measurement": "solubility (mole fraction)", "setting": "in acetone, 318.15 K", "value": 0.035}, {"measurement": "solubility (mole fraction)", "setting": "in acetone, 323.15 K", "value": 0.0409}, {"measurement": "solubility (mole fraction)", "setting": "in ethanol, 283.15 K", "value": 0.00506}, {"measurement": "solubility (mole fraction)", "setting": "in ethanol, 288.15 K", "value": 0.00615}, {"measurement": "solubility (mole fraction)", "setting": "in ethanol, 293.15 K", "value": 0.00797}, {"measurement": "solubility (mole fraction)", "setting": "in ethanol, 298.15 K", "value": 0.00961}, {"measurement": "solubility (mole fraction)", "setting": "in ethanol, 303.15 K", "value": 0.0117}, {"measurement": "solubility (mole fraction)", "setting": "in ethanol, 308.15 K", "value": 0.015}, {"measurement": "solubility (mole fraction)", "setting": "in ethanol, 313.15 K", "value": 0.0191}, {"measurement": "solubility (mole fraction)", "setting": "in ethanol, 318.15 K", "value": 0.023}, {"measurement": "solubility (mole fraction)", "setting": "in ethanol, 323.15 K", "value": 0.0279}, {"measurement": "solubility (mole fraction)", "setting": "in ethyl acetate, 283.15 K", "value": 0.00382}, {"measurement": "solubility (mole fraction)", "setting": "in ethyl acetate, 288.15 K", "value": 0.00459}, {"measurement": "solubility (mole fraction)", "setting": "in ethyl acetate, 293.15 K", "value": 0.00548}, {"measurement": "solubility (mole fraction)", "setting": "in ethyl acetate, 298.15 K", "value": 0.00659}, {"measurement": "solubility (mole fraction)", "setting": "in ethyl acetate, 303.15 K", "value": 0.00821}, {"measurement": "solubility (mole fraction)", "setting": "in ethyl acetate, 308.15 K", "value": 0.00992}, {"measurement": "solubility (mole fraction)", "setting": "in ethyl acetate, 313.15 K", "value": 0.0118}, {"measurement": "solubility (mole fraction)", "setting": "in ethyl acetate, 318.15 K", "value": 0.0138}, {"measurement": "solubility (mole fraction)", "setting": "in ethyl acetate, 323.15 K", "value": 0.0164}, {"measurement": "solubility (mole fraction)", "setting": "in isobutanol, 283.15 K", "value": 0.00363}, {"measurement": "solubility (mole fraction)", "setting": "in isobutanol, 288.15 K", "value": 0.00453}, {"measurement": "solubility (mole fraction)", "setting": "in isobutanol, 293.15 K", "value": 0.00573}, {"measurement": "solubility (mole fraction)", "setting": "in isobutanol, 298.15 K", "value": 0.00716}, {"measurement": "solubility (mole fraction)", "setting": "in isobutanol, 303.15 K", "value": 0.00904}, {"measurement": "solubility (mole fraction)", "setting": "in isobutanol, 308.15 K", "value": 0.0108}, {"measurement": "solubility (mole fraction)", "setting": "in isobutanol, 313.15 K", "value": 0.013}, {"measurement": "solubility (mole fraction)", "setting": "in isobutanol, 318.15 K", "value": 0.0158}, {"measurement": "solubility (mole fraction)", "setting": "in isobutanol, 323.15 K", "value": 0.0199}, {"measurement": "solubility (mole fraction)", "setting": "in isopropanol, 283.15 K", "value": 0.00627}, {"measurement": "solubility (mole fraction)", "setting": "in isopropanol, 288.15 K", "value": 0.00759}, {"measurement": "solubility (mole fraction)", "setting": "in isopropanol, 293.15 K", "value": 0.0089}, {"measurement": "solubility (mole fraction)", "setting": "in isopropanol, 298.15 K", "value": 0.0106}, {"measurement": "solubility (mole fraction)", "setting": "in isopropanol, 303.15 K", "value": 0.0122}, {"measurement": "solubility (mole fraction)", "setting": "in isopropanol, 308.15 K", "value": 0.015}, {"measurement": "solubility (mole fraction)", "setting": "in isopropanol, 313.15 K", "value": 0.018}, {"measurement": "solubility (mole fraction)", "setting": "in isopropanol, 318.15 K", "value": 0.021}, {"measurement": "solubility (mole fraction)", "setting": "in isopropanol, 323.15 K", "value": 0.0258}, {"measurement": "solubility (mole fraction)", "setting": "in methanol, 283.15 K", "value": 0.00365}, {"measurement": "solubility (mole fraction)", "setting": "in methanol, 288.15 K", "value": 0.00485}, {"measurement": "solubility (mole fraction)", "setting": "in methanol, 293.15 K", "value": 0.00609}, {"measurement": "solubility (mole fraction)", "setting": "in methanol, 298.15 K", "value": 0.00804}, {"measurement": "solubility (mole fraction)", "setting": "in methanol, 303.15 K", "value": 0.0105}, {"measurement": "solubility (mole fraction)", "setting": "in methanol, 308.15 K", "value": 0.0132}, {"measurement": "solubility (mole fraction)", "setting": "in methanol, 313.15 K", "value": 0.0166}, {"measurement": "solubility (mole fraction)", "setting": "in methanol, 318.15 K", "value": 0.0202}, {"measurement": "solubility (mole fraction)", "setting": "in methanol, 323.15 K", "value": 0.0248}, {"measurement": "solubility (mole fraction)", "setting": "in methyl acetate, 283.15 K", "value": 0.00449}, {"measurement": "solubility (mole fraction)", "setting": "in methyl acetate, 288.15 K", "value": 0.00544}, {"measurement": "solubility (mole fraction)", "setting": "in methyl acetate, 293.15 K", "value": 0.00656}, {"measurement": "solubility (mole fraction)", "setting": "in methyl acetate, 298.15 K", "value": 0.00794}, {"measurement": "solubility (mole fraction)", "setting": "in methyl acetate, 303.15 K", "value": 0.00945}, {"measurement": "solubility (mole fraction)", "setting": "in methyl acetate, 308.15 K", "value": 0.0112}, {"measurement": "solubility (mole fraction)", "setting": "in methyl acetate, 313.15 K", "value": 0.0129}, {"measurement": "solubility (mole fraction)", "setting": "in methyl acetate, 318.15 K", "value": 0.0152}, {"measurement": "solubility (mole fraction)", "setting": "in methyl acetate, 323.15 K", "value": 0.0179}, {"measurement": "solubility (mole fraction)", "setting": "in n-butanol, 283.15 K", "value": 0.00744}, {"measurement": "solubility (mole fraction)", "setting": "in n-butanol, 288.15 K", "value": 0.0089}, {"measurement": "solubility (mole fraction)", "setting": "in n-butanol, 293.15 K", "value": 0.0109}, {"measurement": "solubility (mole fraction)", "setting": "in n-butanol, 298.15 K", "value": 0.0131}, {"measurement": "solubility (mole fraction)", "setting": "in n-butanol, 303.15 K", "value": 0.0158}, {"measurement": "solubility (mole fraction)", "setting": "in n-butanol, 308.15 K", "value": 0.0186}, {"measurement": "solubility (mole fraction)", "setting": "in n-butanol, 313.15 K", "value": 0.022}, {"measurement": "solubility (mole fraction)", "setting": "in n-butanol, 318.15 K", "value": 0.026}, {"measurement": "solubility (mole fraction)", "setting": "in n-butanol, 323.15 K", "value": 0.0303}, {"measurement": "solubility (mole fraction)", "setting": "in n-butyl acetate, 283.15 K", "value": 0.00308}, {"measurement": "solubility (mole fraction)", "setting": "in n-butyl acetate, 288.15 K", "value": 0.0038}, {"measurement": "solubility (mole fraction)", "setting": "in n-butyl acetate, 293.15 K", "value": 0.00474}, {"measurement": "solubility (mole fraction)", "setting": "in n-butyl acetate, 298.15 K", "value": 0.00562}, {"measurement": "solubility (mole fraction)", "setting": "in n-butyl acetate, 303.15 K", "value": 0.00653}, {"measurement": "solubility (mole fraction)", "setting": "in n-butyl acetate, 308.15 K", "value": 0.00773}, {"measurement": "solubility (mole fraction)", "setting": "in n-butyl acetate, 313.15 K", "value": 0.00972}, {"measurement": "solubility (mole fraction)", "setting": "in n-butyl acetate, 318.15 K", "value": 0.0118}, {"measurement": "solubility (mole fraction)", "setting": "in n-butyl acetate, 323.15 K", "value": 0.014}, {"measurement": "solubility (mole fraction)", "setting": "in n-pentanol, 283.15 K", "value": 0.00879}, {"measurement": "solubility (mole fraction)", "setting": "in n-pentanol, 288.15 K", "value": 0.0103}, {"measurement": "solubility (mole fraction)", "setting": "in n-pentanol, 293.15 K", "value": 0.0123}, {"measurement": "solubility (mole fraction)", "setting": "in n-pentanol, 298.15 K", "value": 0.0146}, {"measurement": "solubility (mole fraction)", "setting": "in n-pentanol, 303.15 K", "value": 0.0171}, {"measurement": "solubility (mole fraction)", "setting": "in n-pentanol, 308.15 K", "value": 0.0194}, {"measurement": "solubility (mole fraction)", "setting": "in n-pentanol, 313.15 K", "value": 0.0228}, {"measurement": "solubility (mole fraction)", "setting": "in n-pentanol, 318.15 K", "value": 0.0264}, {"measurement": "solubility (mole fraction)", "setting": "in n-pentanol, 323.15 K", "value": 0.031}, {"measurement": "solubility (mole fraction)", "setting": "in n-propanol, 283.15 K", "value": 0.00544}, {"measurement": "solubility (mole fraction)", "setting": "in n-propanol, 288.15 K", "value": 0.00656}, {"measurement": "solubility (mole fraction)", "setting": "in n-propanol, 293.15 K", "value": 0.00841}, {"measurement": "solubility (mole fraction)", "setting": "in n-propanol, 298.15 K", "value": 0.0108}, {"measurement": "solubility (mole fraction)", "setting": "in n-propanol, 303.15 K", "value": 0.0135}, {"measurement": "solubility (mole fraction)", "setting": "in n-propanol, 308.15 K", "value": 0.0163}, {"measurement": "solubility (mole fraction)", "setting": "in n-propanol, 313.15 K", "value": 0.0207}, {"measurement": "solubility (mole fraction)", "setting": "in n-propanol, 318.15 K", "value": 0.0246}, {"measurement": "solubility (mole fraction)", "setting": "in n-propanol, 323.15 K", "value": 0.0289}]}
